Read-outs that look alike come from different tables or passages of the source.
What was measured:
[1] = Toxicity to African green monkey kidney cells (Vero-E6), CCK-8, 48 hours; conditions: African green monkey
From the text: (§1) • (1) Medicaments: experimental group, tannic acid; control group, Remdesivir (purchased from Shanghai TopScience Technology Co., Ltd.); • (2) Cell line: African green monkey kidney cells (Vero-E6 cells); • (3) Others: MEM medium; 96-well culture plate. 2. […] 3. Experimental results
(§2) • (1) Medicaments: in the experimental group, tannic acid was mixed with catechin, resveratrol, and zinc gluconate according to a mass ratio of 1:1 to prepare into three pharmaceutical compositions; in the control group, Remdesivir (purchased from Shanghai TopScience Technology Co., Ltd.); • (2) Other experimental materials were the same as those in Embodiment 1. 2. Experimental steps: refer to Embodiment 1. 3. Experimental results

[2] = tested on: African green monkey kidney cells (Vero-E6 cells); assay: as above; conditions: Vero-E6 cells; for TC0 (maximum non-toxic concentration): 48 hours, CCK-8
From the text: as §1, §2

SARS-CoV-2 virus [3] = conditions: SARS-CoV-2, Vero-E6 cells; […]
SARS-CoV-2 virus [4] = assay: microbe, parasite or virus in culture
in vitro = conditions: dog
Experimental: (§3) 2. […] The maximum non-toxic concentration (TC0) of the medicament was taken as the minimum dilution times of the medicament without cytopathic changes, and the median toxic concentration (TC50) of the medicament was calculated by the Reed-Muench formula. 3. Experimental results
(§4) • (1) Medicaments: same as Embodiment 5; • (2) Other experimental materials were the same as those in Embodiment 3. 2. Experimental procedure: refer to Embodiment 3. 3. Experimental results

Influenza A H1N1 virus = assay: microbe, parasite or virus in culture; conditions: H1N1, MDCK
[5] = tested on: canine kidney epithelial cells (MDCK cells); assay: Toxicity to canine kidney epithelial cells (MDCK), cytopathic changes; conditions: MDCK cells, cytopathic changes
Experimental: as §3, §4

[6] = Severe acute respiratory syndrome coronavirus 2, Vero C1008, 48 h, read-out: IC50 (median inhibitory concentration)

Row | SMILES | CC50 at 48 h [1] [µM] | TC0 (maximum non-toxic concentration) [2] [µM] | TC0 ([2]; compositions, mass ratio 1:1) [µg/mL] | TC50 ([2]; compositions, mass ratio 1:1) [µg/mL] | SI (SARS-CoV-2 virus [3]) | IC50 (SARS-CoV-2 virus [4]; Severe acute respiratory syndrome coronavirus 2, Vero C1008) [µg/mL] | IC50 (SARS-CoV-2 virus [4]; [6]) [µM] | CC50 (in vitro) [µM] | IC50 (Influenza A H1N1 virus; 48 h, read-out: IC50 (median inhibitory concentration)) [µM] | IC50 (Influenza A H1N1 virus; Influenza A H1N1, MDCK cells, compositions, mass ratio 1:1) [µg/mL] | TC0 (maximum non-toxic concentration) [5] [µM]
1 | CCC(CC)COC(=O)[C@H](C)N[P@](=O)(OC[C@H]1O[C@@](C#N)(c2ccc3c(N)ncnn23)[C@H](O)[C@@H]1O)Oc1ccccc1 [Remdesivir] | 106 | 52.8 | 31.816 | 63.633 | 162.21 | 0.392 ± 0.003 | 0.651 ± 0.013 |  |  |  | 
2 | NC(=O)c1ncn([C@@H]2O[C@H](CO)[C@@H](O)[C@H]2O)n1 [Ribavirin] |  |  |  |  |  |  |  | 1310 | 22.6 ± 0.04 | 5.52 ± 0.03 | 
3 | O=C(OC[C@H]1O[C@@H](OC(=O)c2cc(O)c(O)c(OC(=O)c3cc(O)c(O)c(O)c3)c2)[C@H](OC(=O)c2cc(O)c(O)c(OC(=O)c3cc(O)c(O)c(O)c3)c2)[C@@H](OC(=O)c2cc(O)c(O)c(OC(=O)c3cc(O)c(O)c(O)c3)c2)[C@@H]1OC(=O)c1cc(O)c(O)c(OC(=O)c2cc(O)c(O)c(O)c2)c1)c1cc(O)c(O)c(OC(=O)c2cc(O)c(O)c(O)c2)c1 [Tannic acid, tannic acid] | 23.5 | 11.8 |  |  |  |  | 0.0032 | 752 |  |  | 376.21
